Test results as given in patent US10059740B2, “Integrin interaction inhibitors for the treatment of cancer” (H. LEE MOFFITT CANCER CENTER AND RESEARCH INSTITUTE, INC., priority 2010, dated 2018).
Read-outs that look alike come from different tables or passages of the source. Starred links: 1 amine or outer side, 2 acyl side, 3 side chain; linkers in the order of their positions; H or OH if unused. Positions of bridges follow the written chain, without caps; N, C: chain ends. Non-standard residues stand in square brackets, D forms with d. Residues, ends and D or L forms follow the SMILES beside them. No end group written: not given here. *: point of attachment. T1 = NH2CH2CH2N(SO2Me)CH2COOH, methylsulfonamido aminoethyl glycine linker; dProlinol(O-CH2CO) = O=C(COC[C@H]1CCCN1[*:1])[*:2]; N(2-Aminoethyl)Gly = O=C(CN(CCN[*:3])[*:1])[*:2]; Nle = CCCC[C@H](N)C(=O)O; Ms = CS(=O)(=O)*; Sar = CNCC(=O)O

Key:
[1] = tested on: peripheral blood mononuclear cells (PBMC); test: Cell death in normal peripheral blood mononuclear cells, annexin V positivity and FACS; format: cell-based; details: 6.25-50 ug/ml, six hours
Method: Peripheral blood mononuclear cells (PBMC) were isolated from a normal donor. Cells were treated with 6.25, 12.5, 25 and 50 ug/ml for six hours and cell death was measured by annexin V positivity and FACS analysis.
(§1) CD34^+ hematopoietic progenitor cells were isolated from peripheral blood and treated for 2 hrs with integrin interaction inhibitors (12.5 and 50 μg/ml) and then plated in a methylcellulose media supplemented with growth factors supporting myeloid and erythroid colonies. Colonies were counted on day 12 post-plating. […] In addition, we evaluated the toxicity of integrin interaction inhibitors in normal peripheral blood mononuclear cells (PBMC).

[2] = tested on: H929 myeloma cells; format: cell-based; details: for activity relative to linear parent peptide (linear D-HYD1): in words
Method: H929 cells were treated for 24 hours with varying concentrations of peptide. Cell death was measured by Topro-3 staining and FACS analysis. The IC50 values were obtained from linear regression analysis and an average value was obtained from 3 independent experiments.
Table 4 legend: Structure activity relationship in H929 myeloma cells of cyclic INTEGRIN INTERACTION INHIBITORS derivatives. The minimal bioactive core sequence of INTEGRIN INTERACTION INHIBITORS WSVVM (SEQ ID NO:85) was cyclized using 2 novel reduced amide bond beta turn promoters and KLKLK (SEQ ID NO:27) as the non-recognition sequence. H929 cells were treated with varying concentrations of the indicated peptide for 24 h. Cell viability was determined using Topro-3 staining and FACS analysis after drug treatment. IC50 values were generated from linear regressions generated from the dose response curves (n=mean of 3 independent experiments).
Using combinatorial peptide libraries and a functional binding assay, several peptides have been identified that inhibited α2β1 and α6β1 integrin mediated adhesion of prostate cancer cells to fibronectin, laminin and collagen IV.^1 They identified an all D-amino acid containing peptide referred as HYD1 ([…]) (SEQ ID NO:278) that blocks binding of epithelial prostate carcinoma cells to extracellular matrix components.^2,3 Hazlehurst and co-workers have truncated the N- and C-termini and alanine scan studies identified MVISW (SEQ ID NO:279) as the likely core region of linear D-HYD1 required for biological activity. […] The pentapeptide (KLKLK) (SEQ ID NO:27) was selected as the non-recognition strand to improve the solubility. N- to C-terminus cyclization of linear peptides was done to restrict the number of conformations available to the linear peptide which increases the affinity of the cyclized peptide for its target when the constraint stabilizes the bound conformation of the peptide. We synthesized cyclic D-HYD1 using a novel methylsulfonamide aminoethyl glycine linker T1 that connects two anti-parallel strands. […] The inverso- (peptide 2, Table 4) and partially modified retro-inverso (PMRI) (peptide 10) pentapeptide sequences of the recognition strand of cyclic III (Integrin Interaction Inhibitors also known as cyclic L-HYD1) peptide analogs were subsequently investigated for their potential to block beta integrin mediated cell adhesion. The retro-inverso design of biologically active peptides is a well-known strategy to design all D-amino acid peptides from potentially bioactive all L-peptide sequences with increased stability^4-7.
A colony forming assay was used to compare induced cell death in H929 multiple myeloma cells. Cells were treated with integrin interaction inhibitors, shown in FIG. 5 and Table 4, and cell death was measured following 24 hour peptide treatment by TOPRO-3 staining and FACS analysis.

[3] = Weight and overt toxicity of mice injected with c-HYD1; format: in vivo
Method: (§2) Briefly, 50,000 H929 myeloma cells were engrafted into the bone implant for 10 days prior to initiation of peptide treatment. Following tumor engraftment mice were randomized (0 time point) and injected with 8 mg/kg c-HYD1 or vehicle control (VC) daily (I.P. injections) for 14 days and every other day from day 14-28 at which time treatment stopped. Tumor burden was measured by circulating Kappa levels by ELISA weekly. N=10 mice for vehicle control (VC) and 9 mice for c-HYD1 treated.
FIG. 42 is a graph showing the effect of cyclized HYD1 (c-HYD1) injection on the weight of mice.

[4] = tested on: H929 myeloma cells; test: MM SCID-Hu in vivo model, tumor burden by circulating Kappa levels (ELISA); set-up: species or system mice; details: 8 mg/kg I.P. daily 14 days, every other day day 14-28; p<0.05 ANOVA vs vehicle
Method: as §2, §1

[5] = tested on: U266; test: Drug combination, cell viability by CT-Blue assay, Chou and Talalay Combination Index; format: cell-based; details: combination with the named agent
[6] = cyclic III peptide analogs, Table 8, H929 cells, TOPRO 3, read-out: IC50

With `CC[C@@H](C)[C@@H](NC(=O)[C@H](N)CCCCN)C(=O)N[C@H](CCCCN)C(=O)N[C@H](CCSC)C(=O)N[C@@H](C(=O)N[C@@H](C(=O)N[C@H](CO)C(=O)N[C@H](Cc1c[nH]c2ccccc12)C(=O)N[C@H](CCCCN)C(=O)NCC(=O)O)[C@H](C)CC)C(C)C` [HYD1] the “cell death in normal PBMC” value [1] was “more potent in MM cells (H929) compared to normal hematopoietic cells”.
In the case of `CCCC[C@@H]1NC(=O)CN(S(C)(=O)=O)CCNC(=O)[C@H](CCCCN)NC(=O)[C@H](CC(C)C)NC(=O)[C@H](CCCCN)NC(=O)[C@H](CCC(N)=O)NC(=O)[C@H](CCCCN)NC(=O)COC[C@H]2CCCN2C(=O)[C@H](Cc2c[nH]c3ccccc23)NC(=O)[C@H](C)NC(=O)[C@H](C(C)C)NC(=O)[C@H](C(C)C)NC1=O` [Peptide 20, KQKLKT1N*VVAWT3] (Ms-[N(2-Aminoethyl)Gly][Nle]VVAW[dProlinol(O-CH2CO)]KQKLK; lactam 1-C), the IC50 ([2]; 24 h) is reported as 18 µM.
`CCCC[C@@H]1NC(=O)CN(S(C)(=O)=O)CCNC(=O)[C@H](CCCCN)NC(=O)[C@H](CCC(N)=O)NC(=O)[C@H](CCCCN)NC(=O)[C@H](CC(C)C)NC(=O)[C@H](CCCCN)NC(=O)COC[C@H]2CCCN2C(=O)[C@H](Cc2c[nH]c3ccccc23)NC(=O)[C@H](C)NC(=O)[C@H](C(C)C)NC(=O)[C@H](C(C)C)NC1=O` [Peptide 21, KLKQKT1N*VVAWT3] (Ms-[N(2-Aminoethyl)Gly][Nle]VVAW[dProlinol(O-CH2CO)]KLKQK; lactam 1-C) showed an IC50 ([2]; 24 h) of 25 µM.
With `CCCC[C@@H]1NC(=O)[C@H](C(C)C)NC(=O)[C@H](C(C)C)NC(=O)[C@H](C)NC(=O)[C@H](Cc2c[nH]c3ccccc23)NC(=O)COC[C@H]2CCCN2C(=O)[C@H](CCCCN)NC(=O)CN(C)C(=O)[C@H](CCCCN)NC(=O)CN(C)C(=O)[C@H](CCCCN)NC(=O)COC[C@H]2CCCN2C1=O` [Peptide 23, KXKXKT3WAVVN*T3] (cyclo(K[Sar]K[Sar]K[dProlinol(O-CH2CO)]WAVV[Nle][dProlinol(O-CH2CO)])) the “bioactivity of cyclic III peptide analogs, in words” value ([2]; SAR discussion of Table 8) was “poor bioactivity”.
For `CCCC[C@@H]1NC(=O)CN(S(C)(=O)=O)CCNC(=O)[C@H](CCCCN)NC(=O)[C@H](CC(C)C)NC(=O)[C@H](CCCCN)NC(=O)[C@H](CC(C)C)NC(=O)[C@H](CCCCN)NC(=O)COC[C@H]2CCCN2C(=O)[C@H](Cc2c[nH]c3ccccc23)NC(=O)[C@H](C)NC(=O)[C@H](CC(C)C)NC(=O)[C@H](C(C)C)NC1=O` [Peptide 24, KLKLKT1N*VLAWT3] (Ms-[N(2-Aminoethyl)Gly][Nle]VLAW[dProlinol(O-CH2CO)]KLKLK; lactam 1-C), the IC50 [2, 6] was 10 µM.
For `CCCC[C@@H]1NC(=O)CN(S(C)(=O)=O)CCNC(=O)[C@H](CCCCN)NC(=O)[C@H](CC(C)C)NC(=O)[C@H](CCCCN)NC(=O)[C@H](CC(C)C)NC(=O)[C@H](CCCCN)NC(=O)COC[C@H]2CCCN2C(=O)[C@H](Cc2c[nH]c3ccccc23)NC(=O)[C@H](C)NC(=O)[C@H]([C@@H](C)CC)NC(=O)[C@H](C(C)C)NC1=O` [Peptide 25, KLKLKT1N*VIAWT3] (Ms-[N(2-Aminoethyl)Gly][Nle]VIAW[dProlinol(O-CH2CO)]KLKLK; lactam 1-C), the IC50 [2, 6] was 10 µM.
`CCCC[C@@H]1NC(=O)CN(S(C)(=O)=O)CCNC(=O)[C@H](CCCCN)NC(=O)[C@H](CC(C)C)NC(=O)[C@H](CCCCN)NC(=O)[C@H](CC(C)C)NC(=O)[C@H](CCCCN)NC(=O)COC[C@H]2CCCN2C(=O)[C@H](Cc2c[nH]c3ccccc23)NC(=O)[C@H](C)NC(=O)[C@H](Cc2ccccc2)NC(=O)[C@H](C(C)C)NC1=O` [Peptide 26, KLKLKT1N*VFAWT3] (Ms-[N(2-Aminoethyl)Gly][Nle]VFAW[dProlinol(O-CH2CO)]KLKLK; lactam 1-C) gave an IC50 [2, 6] of 9 µM.
In the case of `CCCC[C@@H]1NC(=O)CN(S(C)(=O)=O)CCNC(=O)[C@H](CCCCN)NC(=O)[C@H](CC(C)C)NC(=O)[C@H](CCCCN)NC(=O)[C@H](CC(C)C)NC(=O)[C@H](CCCCN)NC(=O)COC[C@H]2CCCN2C(=O)[C@H](Cc2c[nH]c3ccccc23)NC(=O)[C@H](C)NC(=O)[C@H](C(C)C)NC(=O)[C@H](C(C)C)NC1=O` [c-HYD1] (Ms-[N(2-Aminoethyl)Gly][Nle]VVAW[dProlinol(O-CH2CO)]KLKLK; lactam 1-C), the “weight loss and overt signs of toxicity” value [3] is reported as “No weight loss or any overt signs of toxicity were observed”, the “fold more potent than the parent linear HYD1 peptide” value ([2]; H929 cells) is reported as 30 fold and the IC50 ([2]; H929 cells, 24 hours, Topro-3 and FACS, read-out: IC50 value in H929 cells) is reported as 1.2 µM. For the same molecule, the “tumor growth (circulating Kappa levels)” value [4] was “significantly reduces tumor growth”.
For `CSCC[C@H]1NC(=O)CN(S(C)(=O)=O)CCNC(=O)[C@@H](CCCCN)NC(=O)[C@@H](CC(C)C)NC(=O)[C@@H](CCCCN)NC(=O)[C@@H](CC(C)C)NC(=O)[C@@H](CCCCN)NC(=O)CN(S(C)(=O)=O)CCNC(=O)[C@@H](Cc2c[nH]c3ccccc23)NC(=O)[C@@H](CO)NC(=O)[C@@H](C(C)C)NC(=O)[C@@H](C(C)C)NC1=O` [cyclic D-HYD1], the “activity relative to linear parent peptide (linear D-HYD1)” value ([2]; H929 cells) was “twice as active” and the “activity relative to linear parent peptide (linear D-HYD1)” value ([2]; H929 cells, listed as c-D-HYD1) was “about twice as active”.
In the case of `COc1cccc2c1C(=O)c1c(O)c3c(c(O)c1C2=O)C[C@@](O)(C(=O)CO)C[C@@H]3O[C@H]1C[C@H](N)[C@H](O)[C@H](C)O1` [doxorubicin], the “synergy with integrin interaction inhibitors, in words” value [5] is reported as “strong synergism”.
For “L-HYD1: the inverso (L-HYD1) cyclic compound (cyclo(KLKLKMVVSW)-T1; not fully specified (residue 5))”, the “potency relative to cyclic D-HYD1” value ([2]; H929 cells) was 2 fold.
For “MVVAW: cyclic compound with recognition strand MVVAW (SEQ ID NO:35), S replaced by A (also: recognition strand of a larger cyclic compound)”, the “fold more potent than the parent linear HYD1 peptide” value ([2]; H929 cells) was “approximately 10 fold”.
For “NorLeuVVAW: cyclic compound combining both modifications, recognition strand NorLeuVVAW (SEQ ID NO:41) ([Nle]VVAW; also: cyclic, closure not given here)”, the “fold more potent than the parent linear HYD1 peptide” value ([2]; H929 cells) was 30 fold.
With “NorLeuVVSW: cyclic compound with recognition strand NorLeuVVSW (SEQ ID NO:39), methionine replaced by nor-Leucine ([Nle]VVSW; also: cyclic compound, closure not given here)” the “fold more potent than the parent linear HYD1 peptide” value ([2]; H929 cells) was 15 fold.
In the case of arsenic trioxide, the “synergy with integrin interaction inhibitors, in words” value [5] is reported as “strong synergism”.
